Laboratory results as given in patent US5030715A, “Novel aminopimelic acids” (Roussel Uclaf, priority 1987, dated 1991).

What was measured:
human monocytes [1] = test: Stimulation of monocyte cells: Tumor Necrosis Factor (TNF) test on culture supernatants; format: cell-based; conditions: for direct effect on human monocytes, production of a TNF activity in the culture supernatants: with 5 g of product
Protocol: (§1) The mononucleus cells of the circulating blood of normal donors were separated according to the standard technique described by Boyum using a Ficoll gradient. After washing, the mononuclear cells were incubated at 37° C. for one hour at the rate of 5.10^6 monocytes (NSE^+ cells) per ml of culture medium using 5 ml per culture flask. The culture medium used in this experiment was made up of RPMI 1640 with the addition of antibiotics and Hepes buffer. After one hour, the non-adherent cells were removed by washing the flasks with medium previously heated to 37° C. and the adherent cells composed mostly of monocytes (>90%) were put back in culture in complete RPMI medium without serum in the presence of various quantities of products under test, which had previously been put in solution in a buffer (Dulbecco) without Ca^2+ or Mg^2+. The culture was continued for 24 or 48 hours and the supernatants of the cells were then removed, centrifuged, separated into equal lots and held either at -80° C. or at -20° C. The supernatants of the culture were replaced in the flasks by the same amount of apyrogenous distilled water to dissolve the cells. The lysate was recovered, separated into equal lots and also kept at -20° C.
The TNF activity is shown by the toxicity of this factor on the L-929 target cells (sub-clone alpha) and the technique was sensitized by adding D actinomycin in the test. The L cells were distributed at a rate of 2×10^4 cells per well of a flat-bottomed microplate in 100 μl of RPMI 1640 medium enriched with 5% of calf serum, glutamine, Hepes buffer and antibiotics. After 24 hours, various dilutions of the supernatants under test were added in a volume of 100 μl, as well as a dose of D actinomycin of 1 μg/ml. After 24 hours of culture, the quantity of undissolved cells was evaluated by coloring the plates with crystal violet and measuring the optical density of the different wells on a multiscan reader. RESULTS: The product of Example 9 stimulated the monocytes and their production of IL-1 and TNF. Furthermore, there was synergy between the products and the gamma Interferon.

human monocytes [2] = test: Stimulation of monocyte cells: Interleukine-1 (IL-1) test on culture supernatants; format: cell-based; conditions: for direct effect on human monocytes, production of an IL-1 activity in the culture supernatants: with 5 g of product
Protocol: as §1
This test was described for the first time by Gery et al in 1972 [Gery et al 1972. Potentiation of the T lymphocyte response to mitogens. II. The cellular source of potentiating mediator (s) J. Exp. Med., 136-143]. It is based on the co-mitogen action of IL-1 in the presence of an antigen (mimicked by phytohemaglutinine in the test) on the thymocytes of mice. 1.5×10^6 thymocytes of mice C3H/HeJ (from the C.S.E.A.L. of Orleans) were put in culture for three days in the presence of various dilutions of supernatants and of cell lysates which may contain IL-1 activity and of PHA-P Wellcome (1 ug/ml) in culture plates with 96 flat bottomed wells, in a final volume of 200 ul of medium composed of RPMI 1640 containing in addition to antibiotics (penicillin 1 U/ml - streptomycin 1000 U/ml) of Hepes buffer, 1 mM of glutamine, 2 mM 5% of calf serum and […] of 2-mercapto ethanol. After 68 hours of culture, 1 μCi of tritiated thymidine was added to each well (^3 H-methyl thymidine, CEA Saclay, TMM79A specific activity 1 Ci/mM=37 GBq/mM) and the radioactivity incorporated by the cells was evaluated after the cultures had been filtered on Skatron type semi-automatic collecting apparatus and the filters had been counted in a liquid scintillation counter (Beckman). The results were expressed by the difference between the impulses per minute incorporated by the cultures in the presence of supernatants and the impulses per minute incorporated by the control cultures.

[3] = system: Enterobacter cloacae 1321E; test: Antibacterial activity in vitro, agar diffusion in Davis Mingioli medium; format: cell-based; conditions: product at 25 mg/l, 24 hours at 37° C., read-out: inhibition zones observed (diameter in mm)
Protocol: (§2) The antibacterial activity of the products was determined by the method of diffusion in a Davis Mingioli medium with 1% of agar added to it. The agars used were poured into Petri dishes at 48° C., after inoculating with […] with the bacterial strain under test. The inocula came from a culture made 24 hours earlier in a Davis Mingioli broth. After the agars had hardened, the aqueous solutions of the products being studied were introduced into wells (9 mm) hollowed in the medium with a punch. The inhibition zones observed (diameter in mm) were measured after incubation for 24 hours at 37° C.

[4] = system: Salmonella typhimurium MZ11; test: as above; format: cell-based; conditions: Salmonella enterica, product at 25 mg/l, 24 hours at 37° C., read-out: inhibition zones observed (diameter in mm)
Protocol: as §2

Strain IP 52 145 = test: Antibacterial activity in vivo, protection of infected mice; parameters: species or system Swiss female mice; conditions: 5 mg/kg intramuscular 24 hours before intravenous infection with strain IP 52 145
Protocol: Swiss female mice weighing from 18 to 20 g (Charles River Cobs noninbred CDl) were used for this experiment with each group comprising 20 animals. The various products were put in solution in apyrogenous physiological serum to obtain concentrations of 1-10-100 mcg/mouse or: 50-500-5000 mcg/kg.
The lyophilized strain was re-hydrated with a few drops of soja trypcase broth (BioMerieux) and a tube of 10 ml of soja trypcase broth was inoculated with the suspension obtained and cultivated for 18 hours in an incubator at 37° C. Tubes of preserving agar (Pasteur) were inoculated with this culture by central stabing. After 18 hours of culture in an incubator at 37° C., the tubes were kept at 22° C.
A tube of soja trypcase broth was inoculated from a preserving agar and cultivated for 18 hours in an incubator at 37° C. Inclined soja trypcase agars were inoculated from this culture. […] The germ concentration was evaluated by counting with a Coulter Counter. […] The quantity of revivable germs injected was checked by spreading on Petri dishes containing trypcase agar.
Administration was done with an intramuscular injection in a volume of 0.05 ml/mouse 24 hours before infection. […] Where a clear increase in survival could not be detected after 21 days of observation, an average survival time (AST) was calculated for each group. […]

Escherichia Coli 078 = test: Antibacterial activity in vitro, agar diffusion in Davis Mingioli medium; format: cell-based; conditions: COLI078, product at 25 mg/l, 24 hours at 37° C., read-out: inhibition zones observed (diameter in mm)
Protocol: as §2

Providencia sp. DU48 = test: as above; format: cell-based; conditions: product at 25 mg/l, 24 hours at 37° C., read-out: inhibition zones observed (diameter in mm)
Protocol: as §2

[5] = human blood monocytes, culture 24 or 48 hours
[6] = in the presence of gamma Interferon (10^3 U/ml; CHU--IFN--g)

## NC(CC=CCC(=O)O)C(=O)O (centres unmarked) [Example 5, 6-amino-3-heptenedioic acid]
Human monocytes [1]
  direct effect on human monocytes, production of a TNF activity in the culture supernatants: showed a direct effect
Human monocytes [2]
  direct effect on human monocytes, production of an IL-1 activity in the culture supernatants: showed a direct effect

## C[C@H](N)C(=O)NC(CC=CCC(=O)O)C(=O)O (stereo partly drawn) [Example 6, 6-(L-alanylamino)-3-heptenedioic acid]
[3]
  zone of inhibition at 25 µg/mL: 10 mm
[4]
  zone of inhibition at 25 µg/mL: 24 mm

## CCCCCCCCCCCCCCCCCC(=O)N[C@@H](C)C(=O)N[C@H](CCC(=O)NC(CC=CCC(=O)[O-])C(=O)[O-])C(=O)O.[Na+].[Na+] (some centres unmarked) [Example 8]
Strain IP 52 145
  protection, expressed in AST (average survival time) or in survival at the end of 21 days of observation: particularly significant protection

## NCCCC[C@H](N)C(=O)NC(CC=CCC(=O)O)C(=O)O (stereo partly drawn) [Example 9, 6-(L-lysylamino)-3-heptenedioic acid]
Human monocytes [1]; [5]
  stimulation of the monocytes and their production of TNF: stimulated
Human monocytes [1]; [6]
  production of monokines (TNF) in the presence of gamma Interferon: at least increased the production
Human monocytes [1]
  direct effect on human monocytes, production of a TNF activity in the culture supernatants: showed a direct effect
Human monocytes [2]; [5]
  stimulation of the monocytes and their production of IL-1: stimulated
Human monocytes [2]; [6]
  production of monokines (IL-1) in the presence of gamma Interferon: at least increased the production
Human monocytes [2]
  direct effect on human monocytes, production of an IL-1 activity in the culture supernatants: showed a direct effect

## C[C@H](N)C(=O)NC(C=CCCC(=O)O)C(=O)O (stereo partly drawn) [Example 13, 2-(L-alanylamino)-3-heptenedioic acid]
Escherichia Coli 078
  zone of inhibition at 25 µg/mL: 17.5 mm
Providencia sp. DU48
  zone of inhibition at 25 µg/mL: 22 mm
[4]
  zone of inhibition at 25 µg/mL: 20 mm
